Earlier results as cited in paper PMC10025480 (Frontiers in Pharmacology, 2023).

System: human bronchial smooth muscle
Settings: cited from earlier work

## O=C(Nc1ccc([N+](=O)[O-])cc1Cl)c1cc(Cl)ccc1O [niclosamide]
Ref Danahay et al., 2020b
  relaxation of human bronchial smooth muscle: confirmed
Ref Miner et al., 2019
  effect on freshly isolated human bronchial smooth muscle: relax
